This is an account of results in PMC5458078, “Global mapping of CARM1 substrates defines enzyme specificity and substrate recognition” (Nature Communications, 2017).

Experiment [1] deals with MCF7 CARM1 KO cells. In words: Quantitative MS of ADMA-containing peptides in MCF7 CARM1 KO cells expressing CARM1 28-608 or CARM1 140-608, and in CARM1 KO. The class given is cell-based, human.
Experiment [2] has as its system MCF7 cells. In words: Quantitative nanoLC-MS/MS (TMT) of ADMA-containing peptides, CARM1 KO vs parental. Also on record: Fold change KO/WT: scale not given here. The class given is cell-based, human.
Where [3] appears, read: CARM1 140-608 versus WT, mean of three replicates (log2).
Where [4] appears, read: KO versus WT, mean of three replicates (log2).
Where [5] appears, read: MCF7, CARM1 KO vs WT, three biological replicates each.
The mark [6] stands for this setting: CARM1 140-608 vs WT, mean of 3 replicates, log2.
Setting [7] is: KO vs WT, mean of 3 replicates, log2.
Setting [8] is: ADMA-containing peptide, CARM1 knockout (KO) vs wild type (WT) MCF7 cells, 6-plex TMT experiment #1, three biological replicates each, sheet "MCF7".
The mark [9] stands for this setting: MCF7, CARM1 knockout vs wild type, n = 3 each.
The mark [10] stands for this setting: ADMA-containing peptide, MCF7, CARM1 knockout (KO1-3) vs wild type (WT1-3), TMT 6-plex experiment #1.
Where [11] appears, read: CARM1 KO vs wild type MCF7 cells, 3 biological replicates each.
[12] abbreviates: CARM1 140-608 versus WT, difference of mean log2 values.
[13] abbreviates: CARM1 KO versus WT, difference of mean log2 values.
Where [14] appears, read: MCF7, CARM1 KO (KO1-KO3) vs wild type (WT1-WT3).
[15] abbreviates: CARM1 140-608 vs WT, mean of 3 replicates (log2 scale).
The mark [16] stands for this setting: KO vs WT, mean of 3 replicates (log2 scale).
Setting [17] is: MCF7 CARM1 knockout vs wild type, 3 biological replicates each, values are on log2 scale.
[18] abbreviates: ratio on log2 scale, mean of 3 replicates.
[19] abbreviates: log2 scale ratio, mean of n = 3.

For EHGAAASErLQLGTPPPLLAArLVPPR, in experiment [1] (setting [3]), the “CARM1 140-608/WT” value is -0.1041. In experiment [1] (setting [4]), this substance registered a KO/WT of -0.4942. QLPNAGPGAPPALGFSrFPAGArYAGAGGLER: the “Fold change KO/WT” value in experiment [2] (setting [5]) was -4.1849. In addition, the “CARM1 140-608/WT” value in experiment [1] (setting [6]) is -2.691. The KO/WT in experiment [1] (setting [7]) is on record as -4.1849. LQGQQFLNQSrQALELK: the “Fold change KO/WT” value in experiment [2] (setting [8]) was -1.9617. Further, the “CARM1 140-608/WT” value in experiment [1] (setting [3]) was found to be 0.6173. The KO/WT in experiment [1] (setting [4]) is -0.8589.

As to LDrICEGIRPQIMNGPLHPRPLVALLDGR, the “Fold change KO/WT” value in experiment [2] (setting [9]) was -0.535. In the case of STrGGHMNSGGHAK, the “Fold change KO/WT” value in experiment [2] (setting [5]) is reported as 0.07617. Besides, the “CARM1 140-608/WT” value in experiment [1] (setting [6]) is given as 0.5079. The substance also came in with a KO/WT in experiment [1] (setting [7]) of 0.07617.

Regarding “HQQLQQMrMQQPPAPVPTTTTTTQQHPrQAAPQMLQQQPPrLISVQTMQR”, the results for the “Fold change KO/WT” value in experiment [2] (setting [10]) and in experiment [2] (setting [11]) were -1.659 and -1.574, respectively. Moreover, the “CARM1 140-608/WT” value in experiment [1] (setting [12]) is listed as -0.9301. In experiment [1] (setting [13]), the KO/WT is -2.355. In the case of FLQPrLAPNQPPPPLIrPALAAPR, the “Fold change KO/WT” value in experiment [2] (setting [14]) is reported as -3.157. For the same substance, in experiment [1] (setting [15]), the “CARM1 140-608/WT” value is listed as 0.3049. Also, in experiment [1] (setting [16]), the KO/WT was -2.801. Turning to “KVPQPCSSATLNrLTVPrYSIPTGDPPPYPEIASQLAQGR”, in experiment [2] (setting [11]), the “Fold change KO/WT” value is recorded as -4.368. Moreover, the “CARM1 140-608/WT” value in experiment [1] (setting [12]) is -2.332. This substance also returned a KO/WT in experiment [1] (setting [13]) of -4.368. Take “TYSEVYPGQQYLQGGQYAPSTAQFAPSPGQPPAPSPSYPGHrLPLQQGMTQSLSVPGPTGLHYKPTR”: the “Fold change KO/WT” value in experiment [2] (setting [11]) is on record as -2.904. Take LLGQRPGPYDRPIGGrGGYYGAGR: the “Fold change KO/WT” value in experiment [2] (setting [17]) is listed as -0.08078. Also, in experiment [1] (mean, CARM1 140-608 versus WT (log2 scale)), the “CARM1 140-608/WT” value came out at 0.09661. In experiment [1] (mean, CARM1 KO versus WT (log2 scale)), the KO/WT was 0.2187. APGPrGSYLGGYSAGrGIYSR: in experiment [2] (setting [14]), the “Fold change KO/WT” value is 0.2541. In addition, in experiment [1] (setting [15]), the “CARM1 140-608/WT” value is 0.2879. This substance also displayed a KO/WT in experiment [1] (setting [16]) of 0.5206. SLCASTLTVSSGSSrGSLASSrGSLASSR: the “Fold change KO/WT” value in experiment [2] (setting [11]) is on record as -0.6221. Further, the “CARM1 140-608/WT” value in experiment [1] (setting [12]) was -0.3572. Besides, in experiment [1] (setting [13]), the KO/WT is given as -0.04724. As for ASAPAADPPrYTFAPSVSLNK, the “Fold change KO/WT” value in experiment [2] (setting [8]) is given as -4.884. Also, in experiment [1] (setting [3]), the “CARM1 140-608/WT” value was -4.581. Also, the KO/WT in experiment [1] (setting [4]) is -6.091. In the case of SIVPTMHYQDSLPrLPIPK, the “Fold change KO/WT” value in experiment [2] (setting [9]) was -2.513. In experiment [1] (setting [18]), the “CARM1 140-608/WT” value is given as -1.626 and the KO/WT is -2.513.

Regarding EPLVATNLPGrGQLQK, in experiment [2] (setting [10]), the “Fold change KO/WT” value is given as -0.7768. For the same substance, in experiment [1] (setting [19]), the “CARM1 140-608/WT” value is listed as -0.7114 and the KO/WT is -0.7768. With DVEAATGQDLGSSrYSGK, in experiment [2] (setting [11]), the “Fold change KO/WT” value was 0.2995. For the same substance, the “CARM1 140-608/WT” value in experiment [1] (setting [12]) is reported as -0.09015. Further, the KO/WT in experiment [1] (setting [13]) is given as -0.4514.

As for AVCSTPLSSSLLGPPGTSALPrLSR, in experiment [2] (setting [8]), the “Fold change KO/WT” value is reported as -3.255. Also, in experiment [1] (difference of log2 means, CARM1 140-608 vs WT), the “CARM1 140-608/WT” value is reported as -2.222. The same substance came in with a KO/WT in experiment [1] (difference of log2 means, KO vs WT) of -3.255. For APPGGLHAPrLSLEGAAR, in experiment [2] (setting [5]), the “Fold change KO/WT” value was -2.121. Moreover, the “CARM1 140-608/WT” value in experiment [1] (setting [6]) is given as -1.8169. In experiment [1] (setting [7]), the KO/WT is -2.946. Regarding QSHTLPFPPPPALPFYPASAYPrHFGPVPPSQGR, the “Fold change KO/WT” value in experiment [2] (setting [9]) is recorded as -1.33. Further, in experiment [1] (setting [18]), the “CARM1 140-608/WT” value is -0.8989 and the KO/WT was -1.33. Take DLYANTVLSGGSTMYPGIADr: the “Fold change KO/WT” value in experiment [2] (setting [5]) amounted to 0.2012. Turning to SPYTTTrYGSPINTFTVRPGTR, in experiment [1] (setting [6]), the “CARM1 140-608/WT” value was -0.1037. The substance also gave a KO/WT in experiment [1] (setting [7]) of -2.259. SPYTTTRYGSPINTFTVrPGTR: the “Fold change KO/WT” value in experiment [2] (setting [5]) was -3.3255.

Take AAGMTPLYAGQrLPQHGYPGPPQAQPLPrQGVK: the “Fold change KO/WT” value in experiment [2] (setting [11]) was -1.882. For the substance “LQHMQQQQPPPrLINFQNHSPKPNGPVLPPHPQQLrYPPNQNIPR”, in experiment [2] (setting [10]), the “Fold change KO/WT” value is listed as -0.9847.

For “VPASPQSQSSSQSPLTPrPLSAEAFCPSPVTPRFQSPDPYSRPPSRPQSR”, in experiment [2] (setting [17]), the “Fold change KO/WT” value is on record as -2.744.

For the substance FEGSPGLrFEGSPGGLrFEGPGGQPVGGLrFEGHR, in experiment [2] (setting [8]), the “Fold change KO/WT” value is -0.8785.

Take “GGrFSAQGMGTFNPADYAEPANTDDNYGNSSGNTWNNTGHFEPDDGTSAWR”: the “Fold change KO/WT” value in experiment [2] (setting [11]) is given as -0.4035.

Regarding PABP1: a known CARM1 substrate, in experiment [2] (CARM1 KO vs parental MCF7 cells), the “Decrease of ADMA site abundance on CARM1 loss” value is reported as “slightly over twofold”. Turning to “TGALPGPGPLSNPrLGGLPGPGPMSNPrAGGLLGAGPDPR”, the “Fold change KO/WT” value in experiment [2] (setting [5]) was -2.931.

Consider LISVQTMQrGNMNCGAFQAHQMR, for which the “Fold change KO/WT” value in experiment [2] (setting [10]) is reported as -0.03531. For GTPVrGAITR, the “Fold change KO/WT” value in experiment [2] (setting [17]) is recorded as -0.02001. As for “AFHDYSAAAAPSPVLGNIPPNDGMPGGPIPPGFFQPFMSPrYAGGPrPPIR”, in experiment [2] (setting [10]), the “Fold change KO/WT” value is on record as -2.246. As to MGTPVPRPPQDMGQIGVrTPLGPR, in experiment [1] (setting [15]), the “CARM1 140-608/WT” value is given as -1.0135. In addition, in experiment [1] (setting [16]), the KO/WT was -2.444. On to “RPQLYGMGSNPHSQPQQSSPYPGGSYGPPGPQrYPIGIQGR”, for which, in experiment [2] (setting [5]), the “Fold change KO/WT” value was -1.511. For “MGTPVPRPPQDMGQIGVrTPLGPrVAAPVGPVGPTPTVLPMGAPVPrPRGPPPPPGDENR”, the “Fold change KO/WT” value in experiment [2] (setting [14]) is recorded as -1.953. EELLrHQLLEKR: the “Fold change KO/WT” value in experiment [2] (setting [5]) was -2.786.

Turning to LPNRDFAFYNPrLQGK, in experiment [2] (setting [5]), the “Fold change KO/WT” value was -1.34. Regarding GSGTGIYSNAAPPPVTYQGNLYrPLLrGQAQIPK, in experiment [2] (setting [11]), the “Fold change KO/WT” value is on record as -4.659. With SSGSPYGGGYGSGGGSGGYGSrRF, the “Fold change KO/WT” value in experiment [2] (setting [9]) was -0.5008. For CAGFLEPTWLAAPPRLArPPR, in experiment [2] (setting [9]), the “Fold change KO/WT” value is on record as -1.124.
